Laboratory results reported in patent publication US10064883B2, “Lipiodol-based anti-tumour emulsion for treating cancer” (CHU DE DIJON, priority 2012, dated 2018).

Tests used:
Format in all cases: cell-based
SNU-449 = assay: in vitro effectiveness of anticancer agents on CHC cell line SNU-449; details: SNU-449 CHC cell line
SNU-398 = assay: in vitro effectiveness of anticancer agents on CHC cell line SNU-398; details: SNU-398 CHC cell line
HepG2 = assay: in vitro effectiveness of anticancer agents on CHC cell line HepG2

Measured: effectiveness among the anticancer agents in vitro

CC(=O)[C@]1(O)Cc2c(O)c3c(c(O)c2[C@@H](O[C@H]2C[C@H](N)[C@H](O)[C@H](C)O2)C1)C(=O)c1ccccc1C3=O [Idarubicin]
most effective: all assays above
